Measurements reported in patent US11492340B2 (priority 2017, dated 2022).
Values joined by “and” are separate entries in the source; they are usually repeats but may differ in a detail not shown here. Equal entries are not always repeated. Where two headings read alike, the source gives them in different places.

How the values were obtained:
[1] = biological target: T1, isopropyl phosphate-aged eeAChE (Electrophorus electricus, UniProt O42275); assay type: biochemical, electric eel
T1 construct: purchased Sigma Aldrich
T1 sequence (O42275 24-633): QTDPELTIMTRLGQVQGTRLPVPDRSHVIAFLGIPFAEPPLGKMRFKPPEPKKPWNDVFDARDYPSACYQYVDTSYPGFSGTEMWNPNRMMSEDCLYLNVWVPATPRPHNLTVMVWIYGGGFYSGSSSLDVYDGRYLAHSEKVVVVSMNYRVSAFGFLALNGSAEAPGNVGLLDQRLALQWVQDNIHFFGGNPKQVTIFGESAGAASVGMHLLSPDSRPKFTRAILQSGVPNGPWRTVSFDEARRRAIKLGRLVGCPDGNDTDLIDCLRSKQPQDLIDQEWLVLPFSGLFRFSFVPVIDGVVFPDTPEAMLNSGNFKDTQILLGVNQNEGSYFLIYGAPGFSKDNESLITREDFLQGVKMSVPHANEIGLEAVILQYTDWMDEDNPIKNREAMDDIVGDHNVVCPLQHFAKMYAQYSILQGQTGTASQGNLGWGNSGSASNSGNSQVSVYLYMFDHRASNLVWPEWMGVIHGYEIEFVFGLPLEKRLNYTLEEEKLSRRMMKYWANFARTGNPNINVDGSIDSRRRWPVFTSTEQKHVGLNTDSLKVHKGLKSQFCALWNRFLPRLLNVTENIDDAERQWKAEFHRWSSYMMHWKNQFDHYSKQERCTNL

[2] = biological target: T2, methylphosphonate-aged AChE (Electrophorus electricus, UniProt O42275); assay type: biochemical, electric eel
T2 construct: purchased Sigma Aldrich
T2 sequence (O42275 24-633): as above

[3] = biological target: T3, methylphosphonate-aged eeAChE (Electrophorus electricus, UniProt O42275); assay type: biochemical, electric eel; settings: for screening efficacy, relative activity (FIG. 3B), in words: pH 8
T3 construct: purchased Sigma Aldrich
T3 sequence (O42275 24-633): as above

[4] = physchem; settings: pH 6
[5] = biological target: T3, methylphosphonate-aged eeAChE; assay: biochemical; set-up: species or system electric eel
[6] = biological target: T1, isopropyl phosphate-aged eeAChE; assay: biochemical; set-up: species or system electric eel
[7] = biological target: T1, isopropyl phosphate-aged eeAChE; assay type: biochemical, electric eel; remark: listed apart in the source
[8] = biological target: T1, isopropyl phosphate-aged eeAChE; assay type: biochemical, electric eel; remark: listed apart in the source
[9] = biological target: T3, methylphosphonate-aged eeAChE; assay type: biochemical, electric eel; settings: pH 8
[10] = biological target: T1, isopropyl phosphate-aged eeAChE; assay type: biochemical, electric eel; settings: pH 8
[11] = biological target: T3, methylphosphonate-aged eeAChE; assay type: biochemical, electric eel
[12] = biological target: isopropyl phosphate-aged (DFP-treated) recombinant huAChE (Homo sapiens, UniProt P22303); assay type: biochemical; settings: pH 9
Sequence of isopropyl phosphate-aged (DFP-treated) recombinant huAChE (P22303 32-614): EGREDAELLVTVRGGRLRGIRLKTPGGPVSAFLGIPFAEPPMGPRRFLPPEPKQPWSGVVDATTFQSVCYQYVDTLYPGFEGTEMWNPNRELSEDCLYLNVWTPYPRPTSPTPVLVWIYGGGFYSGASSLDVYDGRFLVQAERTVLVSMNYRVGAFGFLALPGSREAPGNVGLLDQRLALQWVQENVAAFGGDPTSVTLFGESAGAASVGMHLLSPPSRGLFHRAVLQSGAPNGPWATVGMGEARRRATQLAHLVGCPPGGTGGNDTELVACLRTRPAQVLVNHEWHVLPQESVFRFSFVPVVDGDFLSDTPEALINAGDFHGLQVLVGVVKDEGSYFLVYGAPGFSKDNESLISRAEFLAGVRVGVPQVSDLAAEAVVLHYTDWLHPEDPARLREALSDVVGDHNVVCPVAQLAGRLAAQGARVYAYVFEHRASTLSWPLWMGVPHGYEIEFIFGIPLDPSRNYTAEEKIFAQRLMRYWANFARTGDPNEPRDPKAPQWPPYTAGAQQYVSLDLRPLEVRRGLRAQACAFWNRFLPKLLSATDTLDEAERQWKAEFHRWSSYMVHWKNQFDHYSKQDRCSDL

## C[n+]1ccccc1/C=N/O [2-PAM, 2-pralidoxime, reference compound]
[1]
  Percentage of AChE species: Aged: 100%
  Percentage of AChE species: Native: 0%
  Percentage of AChE species: Realkylated: 0%
[2]
  Percentage of AChE species: Aged: 100%
  Percentage of AChE species: Native: 0%
  Percentage of AChE species: Realkylated: 0%

## CCN(CC)Cc1ncccc1O [C7, 2-((diethylamino)methyl)pyridin-3-ol]
[3]
  screening efficacy, relative activity (FIG. 3B), in words: highest efficacy among C1 to C7

## Oc1cccnc1CN1CCCC1 [C8, 2-(pyrrolidin-1-ylmethyl)pyridin-3-ol]
[3]
  activity in comparison of scaffolds with pyrrolidine leaving group (M series), in words: only active compound in this comparison
  reactivation (resurrection of AChE activity): ~2.5%
  screening efficacy, relative activity (FIG. 3B), in words: most potent candidate in this screen
[4]
  pKa: 7 to 8
[5]
  EC50: 1.18 mM
[1]
  Percentage of AChE species: Aged: 84.6%
  Percentage of AChE species: Native: 15.4%
  Percentage of AChE species: Realkylated: 0%
[6]
  EC50: 5.87 mM
[7]; pH 6
  Relative activity (percentage of positive control): 0.68 ± 0.06%
[7]; pH 7
  Relative activity (percentage of positive control): 1.04 ± 0.07%
[7]; pH 8
  Relative activity (percentage of positive control): 3.58 ± 0.33%
[7]; pH 9
  Relative activity (percentage of positive control): 5.27 ± 0.59%
[8]
  reactivation (resurrection of AChE activity): 1.25%
[9]
  apparent reaction rate: 0.32 % per hour
  resurrected relative activity: 32.7%
[10]
  apparent reaction rate: 0.20 % per hour
  resurrected relative activity: 20.4% and 30.4%
[11]; pH 6
  Relative activity (percentage of positive control): 0.273 ± 0.004%
[11]; pH 7
  Relative activity (percentage of positive control): 1.24 ± 0.02%
[11]; pH 8
  Relative activity (percentage of positive control): 8.47 ± 0.17%
[12]
  aged enzyme resurrected: 18%
[2]
  Percentage of AChE species: Aged: 97.9%
  Percentage of AChE species: Native: 2.1%
  Percentage of AChE species: Realkylated: 0%
